Results reported in ChEMBL document CHEMBL1201862, “PubChem BioAssay data set” (2004).
Where “and” joins values, the source holds several entries; their conditions need not be identical. Equal values may be shown once. Calls of active or inactive are those of the source.

Key:
HeLa = assay: ATP-based viability loss in HeLa cells – cell-based, CellTiter-Glo luminescence, cherry-pick samples, cytotoxicity control for MITF activator project, dose response (AID 540259); assay type: functional; details: Homo sapiens
Trypsin = Trypsin (Sus scrofa, UniProt P00761); assay: trypsin protease activity blockade – biochemical, quenched peptide fluorescence, cherry-pick, selectivity assay for Rce1 protease inhibitor project, dose response (AID 488789)
Kallikrein-7 = Kallikrein-7 (Homo sapiens, UniProt P49862); assay: Fluorescence Intensity-based biochemical primary high throughput dose response assay to identify activators of kallikrein-7 (K7) zymogen.
CAAX prenyl protease 2 [1] = biological target: CAAX prenyl protease 2 (Homo sapiens, UniProt Q9Y256); assay: inhibition of Ras-converting CAAX protease Rce1 – biochemical, yeast membranes, quenched-peptide fluorescence, cherry-pick, dose response (AID 588849)
CAAX prenyl protease 2 (Homo sapiens, UniProt Q9Y256), sequence (Q9Y256 whole entry): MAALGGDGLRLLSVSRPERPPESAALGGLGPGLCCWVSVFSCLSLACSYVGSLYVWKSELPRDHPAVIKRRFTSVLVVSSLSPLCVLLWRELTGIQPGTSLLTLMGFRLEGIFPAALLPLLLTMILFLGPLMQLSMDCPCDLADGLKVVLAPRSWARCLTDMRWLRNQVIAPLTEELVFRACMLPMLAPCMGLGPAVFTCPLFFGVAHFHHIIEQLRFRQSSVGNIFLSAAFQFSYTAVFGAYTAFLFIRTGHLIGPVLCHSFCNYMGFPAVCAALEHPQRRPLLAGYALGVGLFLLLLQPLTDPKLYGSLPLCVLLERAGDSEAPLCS

CAAX prenyl protease 2 [2] = biological target: CAAX prenyl protease 2 (Saccharomyces cerevisiae S288c, UniProt Q03530); assay type: biochemical
CAAX prenyl protease 2 (Saccharomyces cerevisiae S288c, UniProt Q03530), sequence (Q03530 whole entry): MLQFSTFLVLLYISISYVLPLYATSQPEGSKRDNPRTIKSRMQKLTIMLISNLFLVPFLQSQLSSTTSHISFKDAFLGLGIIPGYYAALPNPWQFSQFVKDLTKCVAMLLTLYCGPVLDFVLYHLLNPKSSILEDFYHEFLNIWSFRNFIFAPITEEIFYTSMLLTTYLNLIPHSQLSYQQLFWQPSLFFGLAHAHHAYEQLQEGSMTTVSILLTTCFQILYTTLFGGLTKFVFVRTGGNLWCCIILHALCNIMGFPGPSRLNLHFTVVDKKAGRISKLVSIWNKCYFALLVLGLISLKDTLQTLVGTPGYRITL

Orexin receptor type 2 [3] = biological target: T1, Orexin receptor type 2 (Homo sapiens, UniProt O43614); assay: Counterscreen assay for antagonists of the orexin 1 receptor (OX1R; HCRTR1): Homogeneous Time Resolved Fluorescence (HTRF)-based cell-based dose response assay for antagonists of the orexin 2 receptor (OX2R; HCRTR2), run by assay provider.; assay type: functional
T1 sequence (O43614 whole entry): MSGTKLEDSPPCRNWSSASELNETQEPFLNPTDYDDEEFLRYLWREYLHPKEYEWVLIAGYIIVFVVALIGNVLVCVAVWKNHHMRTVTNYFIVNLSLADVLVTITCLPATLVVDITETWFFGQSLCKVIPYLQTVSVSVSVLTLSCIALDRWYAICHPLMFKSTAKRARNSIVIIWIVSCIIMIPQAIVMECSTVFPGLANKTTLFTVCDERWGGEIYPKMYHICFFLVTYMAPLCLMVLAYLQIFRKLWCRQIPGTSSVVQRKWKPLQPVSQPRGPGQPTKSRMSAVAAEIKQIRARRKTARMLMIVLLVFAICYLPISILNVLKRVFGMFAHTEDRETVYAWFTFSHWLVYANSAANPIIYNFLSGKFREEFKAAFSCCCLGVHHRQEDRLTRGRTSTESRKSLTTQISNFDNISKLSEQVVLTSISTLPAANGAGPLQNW

[4] = biological target: T2, Orexin/Hypocretin receptor type 1 (Homo sapiens, UniProt O43613); assay: Homogeneous Time Resolved Fluorescence (HTRF)-based cell-based high throughput dose response assay for antagonists of the orexin 1 receptor (OX1R; HCRTR1). [Related pubchem assays (depositor defined):AID434989, AID435008, AID463079, AID485270, AID492963, AID492964, AID492965, AID493232, AID504717, AID504718]; assay type: functional
T2 sequence (O43613 whole entry): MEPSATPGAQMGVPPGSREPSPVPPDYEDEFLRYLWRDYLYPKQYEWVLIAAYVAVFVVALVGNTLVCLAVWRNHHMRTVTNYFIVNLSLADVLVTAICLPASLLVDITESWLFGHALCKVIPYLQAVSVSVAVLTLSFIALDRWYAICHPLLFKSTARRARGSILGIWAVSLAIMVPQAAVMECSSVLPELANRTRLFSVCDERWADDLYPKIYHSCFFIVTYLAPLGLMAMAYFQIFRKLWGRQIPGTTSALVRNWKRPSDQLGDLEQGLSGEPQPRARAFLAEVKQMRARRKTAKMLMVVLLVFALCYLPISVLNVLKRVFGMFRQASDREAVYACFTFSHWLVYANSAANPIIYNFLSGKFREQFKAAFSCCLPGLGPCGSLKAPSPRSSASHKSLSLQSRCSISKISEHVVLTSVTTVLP

[5] = (§1) Counterscreen for antagonists of the orexin 1 receptor (OX1R; HCRTR1): Fluorescence-based cell-based high throughput dose response assay to identify antagonists of the parental CHO cell line. [Related pubchem assays (depositor defined):AID434989, AID435008, AID463079, AID485270, AID492963, AID492964, AID492965, AID493232, AID504699, AID504701]; assay type: functional
[6] = biological target: Photoreceptor-specific nuclear receptor (Homo sapiens, UniProt Q9Y5X4); assay: ligands suppressing NR2E3 nuclear receptor activity – biochemical, TR-FRET, dose response (AID 463256); assay type: functional
CHO-K1 = assay: as §1, with “Homogeneous time resolved fluorescence (HTRF)-based” for “Fluorescence-based”, “cell-based” for “cell-based high throughput”, “CHO-K1” for “CHO”; assay type: functional; details: Cricetulus griseus
Orexin receptor type 2 [7] = biological target: T1, Orexin receptor type 2; assay: Counterscreen assay for antagonists of the orexin 1 receptor (OX1R; HCRTR1): Fluorescence-based cell-based dose response assay for antagonists of the orexin 2 receptor (OX2R; HCRTR2), run by assay provider.; assay type: functional
[8] = biological target: Peroxisome proliferator-activated receptor gamma/Nuclear receptor corepressor 2 (Homo sapiens, UniProt P37231+Q9Y618); assay: Counterscreen for NR2E3 inverse agonists: TR-FRET-based biochemical high throughput dose response assay to identify inverse agonists of the interaction between peroxisome proliferator-activated receptor gamma (PPARg) and nuclear receptor co-repressor 2 (NCOR2).; assay type: functional
Peroxisome proliferator-activated receptor gamma/Nuclear receptor corepressor 2, sequence (P37231 whole entry): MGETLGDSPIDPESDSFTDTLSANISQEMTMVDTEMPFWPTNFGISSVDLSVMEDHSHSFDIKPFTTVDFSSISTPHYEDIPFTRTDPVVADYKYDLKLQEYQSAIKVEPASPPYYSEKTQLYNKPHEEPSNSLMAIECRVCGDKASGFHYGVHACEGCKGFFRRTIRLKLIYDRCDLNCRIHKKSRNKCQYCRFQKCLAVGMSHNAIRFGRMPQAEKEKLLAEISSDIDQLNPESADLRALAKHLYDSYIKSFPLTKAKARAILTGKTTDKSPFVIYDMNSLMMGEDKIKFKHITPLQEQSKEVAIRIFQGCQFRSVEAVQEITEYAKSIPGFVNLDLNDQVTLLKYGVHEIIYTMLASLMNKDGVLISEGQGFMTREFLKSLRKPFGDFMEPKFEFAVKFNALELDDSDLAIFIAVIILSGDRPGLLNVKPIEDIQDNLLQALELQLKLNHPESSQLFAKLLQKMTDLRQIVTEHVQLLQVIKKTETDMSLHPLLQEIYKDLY
Peroxisome proliferator-activated receptor gamma/Nuclear receptor corepressor 2, sequence (Q9Y618 whole entry): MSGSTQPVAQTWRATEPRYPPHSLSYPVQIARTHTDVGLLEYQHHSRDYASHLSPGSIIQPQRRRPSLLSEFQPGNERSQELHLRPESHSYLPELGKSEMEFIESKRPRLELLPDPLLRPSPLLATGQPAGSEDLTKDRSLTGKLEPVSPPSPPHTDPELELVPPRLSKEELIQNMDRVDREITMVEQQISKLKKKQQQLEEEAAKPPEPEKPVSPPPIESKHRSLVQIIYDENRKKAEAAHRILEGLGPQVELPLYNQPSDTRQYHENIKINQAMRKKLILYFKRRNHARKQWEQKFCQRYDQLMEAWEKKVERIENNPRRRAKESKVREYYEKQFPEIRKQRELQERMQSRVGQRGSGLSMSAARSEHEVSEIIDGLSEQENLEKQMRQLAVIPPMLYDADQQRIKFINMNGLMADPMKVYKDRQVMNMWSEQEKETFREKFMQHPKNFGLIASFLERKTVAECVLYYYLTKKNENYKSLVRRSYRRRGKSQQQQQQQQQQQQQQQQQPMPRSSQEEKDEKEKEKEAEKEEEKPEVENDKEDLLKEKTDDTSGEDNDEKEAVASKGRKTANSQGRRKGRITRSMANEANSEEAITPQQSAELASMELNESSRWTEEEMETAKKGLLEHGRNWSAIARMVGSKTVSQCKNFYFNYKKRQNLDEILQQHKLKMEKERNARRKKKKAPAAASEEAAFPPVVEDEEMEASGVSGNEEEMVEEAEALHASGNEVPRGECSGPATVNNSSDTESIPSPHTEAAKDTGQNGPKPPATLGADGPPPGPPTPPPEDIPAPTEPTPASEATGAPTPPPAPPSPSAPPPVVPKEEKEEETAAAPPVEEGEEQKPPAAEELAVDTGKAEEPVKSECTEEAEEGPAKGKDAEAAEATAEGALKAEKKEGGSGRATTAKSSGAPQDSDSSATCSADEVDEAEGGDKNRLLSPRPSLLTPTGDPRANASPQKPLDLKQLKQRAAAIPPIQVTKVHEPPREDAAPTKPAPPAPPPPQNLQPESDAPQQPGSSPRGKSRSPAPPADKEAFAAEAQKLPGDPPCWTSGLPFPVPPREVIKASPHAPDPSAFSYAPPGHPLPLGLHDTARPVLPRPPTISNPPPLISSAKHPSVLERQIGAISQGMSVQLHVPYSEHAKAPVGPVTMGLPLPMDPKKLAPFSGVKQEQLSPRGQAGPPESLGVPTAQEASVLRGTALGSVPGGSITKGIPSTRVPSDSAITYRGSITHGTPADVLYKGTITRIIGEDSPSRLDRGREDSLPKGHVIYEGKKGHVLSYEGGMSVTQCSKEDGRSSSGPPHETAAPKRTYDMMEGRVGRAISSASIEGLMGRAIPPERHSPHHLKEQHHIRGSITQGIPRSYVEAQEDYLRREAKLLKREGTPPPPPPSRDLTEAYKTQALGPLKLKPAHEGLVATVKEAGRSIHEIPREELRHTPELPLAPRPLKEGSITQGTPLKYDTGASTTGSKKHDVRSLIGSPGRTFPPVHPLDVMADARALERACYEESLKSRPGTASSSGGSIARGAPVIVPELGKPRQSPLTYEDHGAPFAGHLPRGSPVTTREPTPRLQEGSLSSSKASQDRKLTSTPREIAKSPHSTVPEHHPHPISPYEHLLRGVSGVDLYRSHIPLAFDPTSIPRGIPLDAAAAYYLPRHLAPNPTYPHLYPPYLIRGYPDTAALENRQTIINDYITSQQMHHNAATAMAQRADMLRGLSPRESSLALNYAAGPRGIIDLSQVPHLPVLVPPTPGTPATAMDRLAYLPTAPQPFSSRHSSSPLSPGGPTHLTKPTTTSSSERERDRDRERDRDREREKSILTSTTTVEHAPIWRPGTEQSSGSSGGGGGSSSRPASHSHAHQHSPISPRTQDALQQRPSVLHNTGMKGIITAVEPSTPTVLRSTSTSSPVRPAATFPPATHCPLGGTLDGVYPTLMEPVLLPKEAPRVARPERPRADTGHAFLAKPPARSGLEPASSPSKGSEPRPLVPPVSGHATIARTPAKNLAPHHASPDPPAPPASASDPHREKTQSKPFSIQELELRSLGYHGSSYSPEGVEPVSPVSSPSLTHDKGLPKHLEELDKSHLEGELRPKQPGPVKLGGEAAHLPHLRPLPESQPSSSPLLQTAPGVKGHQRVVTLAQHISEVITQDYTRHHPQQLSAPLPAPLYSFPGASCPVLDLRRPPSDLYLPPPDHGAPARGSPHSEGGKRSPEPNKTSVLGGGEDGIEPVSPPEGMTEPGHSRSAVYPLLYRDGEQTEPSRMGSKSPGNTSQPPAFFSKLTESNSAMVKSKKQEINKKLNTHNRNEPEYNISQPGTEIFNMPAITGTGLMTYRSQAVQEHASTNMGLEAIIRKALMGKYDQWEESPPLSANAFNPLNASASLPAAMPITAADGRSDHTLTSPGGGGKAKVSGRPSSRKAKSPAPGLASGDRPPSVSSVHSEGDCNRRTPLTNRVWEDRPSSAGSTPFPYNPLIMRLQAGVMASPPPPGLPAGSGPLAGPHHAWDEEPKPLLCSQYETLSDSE

[9] = biological target: T2, Orexin/Hypocretin receptor type 1; assay: Fluorescence-based cell-based high throughput dose response assay for antagonists of the orexin 1 receptor (OX1R; HCRTR1). [Related pubchem assays (depositor defined):AID434989, AID435008, AID463079, AID485270, AID492963, AID492964, AID492965, AID493232, AID504717, AID504718]; assay type: functional
[10] = biological target: T3, Beta-2 adrenergic receptor (Homo sapiens, UniProt P07550); assay: Dose response for HTS for Beta-2AR agonists via FAP method from Powderset1.; assay type: functional
T3 sequence (P07550 whole entry): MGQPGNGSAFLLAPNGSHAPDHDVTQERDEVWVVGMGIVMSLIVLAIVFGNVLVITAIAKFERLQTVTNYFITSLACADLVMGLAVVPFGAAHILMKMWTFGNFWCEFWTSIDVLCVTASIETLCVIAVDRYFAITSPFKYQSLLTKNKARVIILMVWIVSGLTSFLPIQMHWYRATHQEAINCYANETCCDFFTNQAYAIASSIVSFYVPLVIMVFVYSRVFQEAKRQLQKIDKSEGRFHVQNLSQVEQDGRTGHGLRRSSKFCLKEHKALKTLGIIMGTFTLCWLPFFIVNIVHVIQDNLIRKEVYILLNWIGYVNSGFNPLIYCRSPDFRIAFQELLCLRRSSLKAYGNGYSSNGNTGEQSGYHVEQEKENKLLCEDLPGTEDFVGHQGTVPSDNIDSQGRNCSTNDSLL

[11] = biological target: T3, Beta-2 adrenergic receptor; assay: ADRB2 activation measured by internalization – cell-based, FAP fluorogen, flow cytometry, cherry pick 1, dose response (AID 588763); assay type: functional
[12] = biological target: Latent membrane protein 1 (Human herpesvirus 4 (strain B95-8), UniProt P03230); assay: LMP1 TES1 pathway selectivity over dsRED control – imaging, HEK293T, dual-color eGFP/dsRED, cherry-picks, selectivity assay for LMP1 NF-kB inhibitor project, dose response (AID 588398); assay type: functional, cell-based

## COc1ccc(C(S)=Nc2ccc(C)cc2)cc1
HeLa
  AC50: 194 µM (active)

## CCNc1nc(C)c(CN(C(C)=O)c2ccccc2)nc1C#N
Trypsin
  AC50: 5.26 µM (active)
Kallikrein-7
  EC50: > 69.5 µM (inactive)
CAAX prenyl protease 2 [1]
  AC50: 5.91 µM (active)
CAAX prenyl protease 2 [2]
  AC50: 48.9 µM (active)

## O=C(CSc1ccc(-c2cccs2)nn1)c1cccs1
Orexin receptor type 2 [3]
  IC50: > 50 µM (inactive)
[4]
  IC50: 2.28 µM (active)
[5]
  IC50: > 49.8 µM (inactive)
[6]
  IC50: 8.97 µM (active)
CHO-K1
  IC50: > 66.2 µM (inactive)
Orexin receptor type 2 [7]
  IC50: > 88.8 µM (inactive)
[8]
  IC50: 9.5 µM (active)
[9]
  IC50: > 0.614 µM (active)

## COC(=O)c1ccc(NC(=O)COc2ccc(S(=O)(=O)N3CCCCC3)cc2)cc1
[10]
  EC50: 0.225 µM (active)
[11]
  EC50: 590 nM (active) and 280 nM (active)

## COc1ccccc1NC(=O)Cn1nnc(-c2ccccc2NS(=O)(=O)c2ccccc2)n1
[12]
  AC50: 87 µM (active)
